Reference: ChEMBL document CHEMBL3046498, “Weed control efficacy and winter wheat safety of a novel herbicide HW02” (Crop Prot, 2013)
The source made the active and inactive calls. No cut-off for these calls is given here.

What was measured:
Triticum aestivum [1] = experiment: Toxicity against Winter Triticum aestivum (wheat) cultivar Dongmai 12 assessed as plant height at 225 g ai/h applied at late tillering stage of crop in spring (reference value: 72.7 cm); assay type: organism-based; settings: in vivo, other
Triticum aestivum [2] = experiment: Toxicity against Winter Triticum aestivum (wheat) cultivar Dongmai 12 assessed as spike numbers at 225 g ai/h applied at booting stage of crop (reference value: 482.4/m'2); assay type: organism-based; settings: in vivo, other
Triticum aestivum [3] = experiment: Toxicity against Winter Triticum aestivum (wheat) cultivar Dongmai 12 assessed as 1000-grain weight at 225 g ai/h applied at 2-tillering stage of crop in winter (reference value: 42.6 g); assay type: organism-based; settings: in vivo, other
Triticum aestivum [4] = experiment: Toxicity against Winter Triticum aestivum (wheat) cultivar Dongmai 12 assessed as plant height at 450 g ai/h applied at 3-leaf stage of crop (reference value: 72.7 cm); assay type: organism-based; settings: in vivo, other
Triticum aestivum [5] = experiment: Toxicity against Winter Triticum aestivum (wheat) cultivar Dongmai 12 assessed as 1000-grain weight at 900 g ai/h applied at late tillering stage of crop in spring (reference value: 42.6 g); assay type: organism-based; settings: in vivo, other
Descurainia sophia [6] = experiment: Herbicidal activity against Descurainia sophia in Wheat cultivar Dongmai 12 field assessed as decrease in biomass applied during late tillering stage of winter wheat at 525 g ai/h measured after 45 days under field trials; assay type: functional, organism-based
Triticum aestivum [7] = experiment: Toxicity against Winter Triticum aestivum (wheat) cultivar Dongmai 12 assessed as 1000-grain weight at 225 g ai/h applied at late tillering stage of crop in spring (reference value: 42.6 g); assay type: organism-based; settings: in vivo, other
Triticum aestivum [8] = experiment: Toxicity against Winter Triticum aestivum (wheat) cultivar Dongmai 12 assessed as plant height at 900 g ai/h applied at 2-tillering stage of crop in winter (reference value: 72.7 cm); assay type: organism-based; settings: in vivo, other
Triticum aestivum [9] = experiment: Toxicity against Winter Triticum aestivum (wheat) cultivar Dongmai 12 assessed as spike numbers at 900 g ai/h applied at booting stage of crop (reference value: 482.4/m'2); assay type: organism-based; settings: in vivo, other
Triticum aestivum [10] = experiment: Toxicity against Winter Triticum aestivum (wheat) cultivar Dongmai 12 assessed as spike numbers at 900 g ai/h applied at late tillering stage of crop in spring (reference value: 482.4/m'2); assay type: organism-based; settings: in vivo, other
Triticum aestivum [11] = experiment: Toxicity against Winter Triticum aestivum (wheat) cultivar Dongmai 12 assessed as grain yield at 525 g ai/h; assay type: organism-based; settings: in vivo
Triticum aestivum [12] = experiment: Toxicity against Winter Triticum aestivum (wheat) cultivar Dongmai 12 assessed as plant height at 225 g ai/h applied at 2-tillering stage of crop in winter (reference value: 72.7 cm); assay type: organism-based; settings: in vivo, other
Capsella bursa-pastoris [13] = experiment: Herbicidal activity against Capsella bursa-pastoris in wheat cultivar lifeng 703 field assessed as decrease in biomass applied during late tillering stage of winter wheatat 525 g ai/h measured after 45 days under field trials; assay type: functional, organism-based
Descurainia sophia [14] = experiment: Herbicidal activity against Descurainia sophia in Wheat cultivar lifeng 703 field assessed as decrease in biomass applied during late tillering stage of winter wheat at 525 g ai/h measured after 45 days under field trials; assay type: functional, organism-based
Triticum aestivum [15] = experiment: Toxicity against Winter Triticum aestivum (wheat) cultivar lifeng 703 assessed as grain yield at 525 g ai/h; assay type: organism-based; settings: in vivo
Triticum aestivum [16] = experiment: Toxicity against Winter Triticum aestivum (wheat) cultivar Dongmai 12 assessed as 1000-grain weight at 900 g ai/h applied at booting stage of crop (reference value: 42.6 g); assay type: organism-based; settings: in vivo, other
Triticum aestivum [17] = experiment: Toxicity against Winter Triticum aestivum (wheat) cultivar Dongmai 12 assessed as plant height at 900 g ai/h applied at 3-leaf stage of crop (reference value: 72.7 cm); assay type: organism-based; settings: in vivo, other
Triticum aestivum [18] = experiment: Toxicity against Winter Triticum aestivum (wheat) cultivar Dongmai 12 assessed as spike numbers at 450 g ai/h applied at booting stage of crop (reference value: 482.4/m'2); assay type: organism-based; settings: in vivo, other
Capsella bursa-pastoris [19] = experiment: Herbicidal activity against Capsella bursa-pastoris assessed as decrease in biomass treated at 4-5 leaf stage measured after 14 days under greenhouse trials; assay type: functional
Triticum aestivum [20] = experiment: Toxicity against Winter Triticum aestivum (wheat) cultivar Dongmai 12 assessed as spike numbers at 900 g ai/h applied at 3-leaf stage of crop (reference value: 482.4/m'2); assay type: organism-based; settings: in vivo, other
Triticum aestivum [21] = experiment: Toxicity against Winter Triticum aestivum (wheat) cultivar Dongmai 12 assessed as spike numbers at 450 g ai/h applied at 3-leaf stage of crop (reference value: 482.4/m'2); assay type: organism-based; settings: in vivo, other
Capsella bursa-pastoris [22] = experiment: Herbicidal activity against Capsella bursa-pastoris in wheat cultivar Dongmai 12 field assessed as decrease in plant number applied during late tillering stage of winter wheatat 525 g ai/h measured after 45 days under field trials; assay type: functional, organism-based
Triticum aestivum [23] = experiment: Toxicity against Winter Triticum aestivum (wheat) cultivar Dongmai 12 assessed as 1000-grain weight at 225 g ai/h applied at 3-leaf stage of crop (reference value: 42.6 gms); assay type: organism-based; settings: in vivo, other
Triticum aestivum [24] = experiment: Toxicity against Winter Triticum aestivum (wheat) cultivar Dongmai 12 assessed as plant height at 450 g ai/h applied at booting stage of crop (reference value: 72.7 cm); assay type: organism-based; settings: in vivo, other
Capsella bursa-pastoris [25] = experiment: Herbicidal activity against Capsella bursa-pastoris in wheat cultivar lifeng 703 field assessed as decrease in plant number applied during late tillering stage of winter wheatat 525 g ai/h measured after 45 days under field trials; assay type: functional, organism-based
Triticum aestivum [26] = experiment: Toxicity against Winter Triticum aestivum (wheat) cultivar Dongmai 12 assessed as plant height at 450 g ai/h applied at late tillering stage of crop in spring (reference value: 72.7 cm); assay type: organism-based; settings: in vivo, other
Triticum aestivum [27] = experiment: Toxicity against Winter Triticum aestivum (wheat) cultivar Dongmai 12 assessed as spike numbers at 225 g ai/h applied at late tillering stage of crop in spring (reference value: 482.4/m'2); assay type: organism-based; settings: in vivo, other
Capsella bursa-pastoris [28] = experiment: Herbicidal activity against Capsella bursa-pastoris in wheat cultivar Dongmai 12 field assessed as decrease in biomass applied during late tillering stage of winter wheatat 525 g ai/h measured after 45 days under field trials; assay type: functional, organism-based
Triticum aestivum [29] = experiment: Toxicity against Winter Triticum aestivum (wheat) cultivar Dongmai 12 assessed as plant height at 225 g ai/h applied at booting stage of crop (reference value: 72.7 cm); assay type: organism-based; settings: in vivo, other
Amaranthus retroflexus = experiment: Herbicidal activity against Amaranthus retroflexus assessed as decrease in biomass treated at 4-5 leaf stage measured after 14 days under greenhouse trials; assay type: functional
Triticum aestivum [30] = experiment: Toxicity against Winter Triticum aestivum (wheat) cultivar Dongmai 12 assessed as 1000-grain weight at 450 g ai/h applied at 3-leaf stage of crop (reference value: 42.6 gms); assay type: organism-based; settings: in vivo, other
Triticum aestivum [31] = experiment: Toxicity against Winter Triticum aestivum (wheat) cultivar Dongmai 12 assessed as plant height at 450 g ai/h applied at 2-tillering stage of crop in winter (reference value: 72.7 cm); assay type: organism-based; settings: in vivo, other
Triticum aestivum [32] = experiment: Toxicity against Winter Triticum aestivum (wheat) cultivar Dongmai 12 assessed as 1000-grain weight at 450 g ai/h applied at booting stage of crop (reference value: 42.6 g); assay type: organism-based; settings: in vivo, other
Triticum aestivum [33] = experiment: Toxicity against Winter Triticum aestivum (wheat) cultivar Dongmai 12 assessed as 1000-grain weight at 900 g ai/h applied at 2-tillering stage of crop in winter (reference value: 42.6 g); assay type: organism-based; settings: in vivo, other
Descurainia sophia [34] = experiment: Herbicidal activity against Descurainia sophia in Wheat cultivar Dongmai 12 field assessed as decrease in plant number applied during late tillering stage of winter wheat at 525 g ai/h measured after 45 days under field trials; assay type: functional, organism-based
Triticum aestivum [35] = experiment: Toxicity against Winter Triticum aestivum (wheat) cultivar Dongmai 12 assessed as spike numbers at 900 g ai/h applied at 2-tillering stage of crop in winter (reference value: 482.4/m'2); assay type: organism-based; settings: in vivo, other
Triticum aestivum [36] = experiment: Toxicity against Winter Triticum aestivum (wheat) cultivar Dongmai 12 assessed as abnormal ear formation at 525 g ai/h; assay type: organism-based; settings: in vivo
Triticum aestivum [37] = experiment: Toxicity against Winter Triticum aestivum (wheat) cultivar Dongmai 12 assessed as plant height at 900 g ai/h applied at booting stage of crop (reference value: 72.7 cm); assay type: organism-based; settings: in vivo, other
Triticum aestivum [38] = experiment: Toxicity against Winter Triticum aestivum (wheat) cultivar Dongmai 12 assessed as plant height at 900 g ai/h applied at late tillering stage of crop in spring (reference value: 72.7 cm); assay type: organism-based; settings: in vivo, other
Triticum aestivum [39] = experiment: Toxicity against Winter Triticum aestivum (wheat) cultivar lifeng 703 assessed as abnormal ear formation at 525 g ai/h; assay type: organism-based; settings: in vivo
Triticum aestivum [40] = experiment: Toxicity against Winter Triticum aestivum (wheat) cultivar Dongmai 12 assessed as spike numbers at 225 g ai/h applied at 2-tillering stage of crop in winter (reference value: 482.4/m'2); assay type: organism-based; settings: in vivo, other
Descurainia sophia [41] = experiment: Herbicidal activity against Descurainia sophia assessed as decrease in biomass treated at 4-5 leaf stage measured after 14 days under greenhouse trials; assay type: functional
Triticum aestivum [42] = experiment: Toxicity against Winter Triticum aestivum (wheat) cultivar Dongmai 12 assessed as 1000-grain weight at 450 g ai/h applied at 2-tillering stage of crop in winter (reference value: 42.6 g); assay type: organism-based; settings: in vivo, other
Descurainia sophia [43] = experiment: Herbicidal activity against Descurainia sophia in Wheat cultivar lifeng 703 field assessed as decrease in plant number applied during late tillering stage of winter wheat at 525 g ai/h measured after 45 days under field trials; assay type: functional, organism-based
Triticum aestivum [44] = experiment: Toxicity against Winter Triticum aestivum (wheat) cultivar Dongmai 12 assessed as spike numbers at 450 g ai/h applied at 2-tillering stage of crop in winter (reference value: 482.4/m'2); assay type: organism-based; settings: in vivo, other
Triticum aestivum [45] = experiment: Toxicity against Winter Triticum aestivum (wheat) cultivar Dongmai 12 assessed as 1000-grain weight at 900 g ai/h applied at 3-leaf stage of crop (reference value: 42.6 g); assay type: organism-based; settings: in vivo, other
Triticum aestivum [46] = experiment: Toxicity against Winter Triticum aestivum (wheat) cultivar Dongmai 12 assessed as 1000-grain weight at 225 g ai/h applied at booting stage of crop (reference value: 42.6 g); assay type: organism-based; settings: in vivo, other
Myosoton aquaticum = experiment: Herbicidal activity against Myosoton aquaticum assessed as decrease in biomass treated at four to five-leaf stage measured after 14 days under greenhouse trials; assay type: functional
Triticum aestivum [47] = experiment: Toxicity against Winter Triticum aestivum (wheat) cultivar Dongmai 12 assessed as plant height at 225 g ai/h applied at 3-leaf stage of crop (reference value: 72.7 cm); assay type: organism-based; settings: in vivo, other
Triticum aestivum [48] = experiment: Toxicity against Winter Triticum aestivum (wheat) cultivar Dongmai 12 assessed as 1000-grain weight at 450 g ai/h applied at late tillering stage of crop in spring (reference value: 42.6 g); assay type: organism-based; settings: in vivo, other
Triticum aestivum [49] = experiment: Toxicity against Winter Triticum aestivum (wheat) cultivar Dongmai 12 assessed as spike numbers at 450 g ai/h applied at late tillering stage of crop in spring (reference value: 482.4/m'2); assay type: organism-based; settings: in vivo, other
Triticum aestivum [50] = experiment: Toxicity against Winter Triticum aestivum (wheat) cultivar Dongmai 12 assessed as spike numbers at 225 g ai/h applied at 3-leaf stage of crop (reference value: 482.4/m'2); assay type: organism-based; settings: in vivo, other

## O=C(O)COc1ccc(Cl)cc1Cl [2,4-DICHLOROPHENOXYACETIC ACID]
Triticum aestivum [1]
  Activity: 73.2 cm
Triticum aestivum [2]
  Activity: 484.5 /m2
Triticum aestivum [3]
  Activity: 42.6 g
Triticum aestivum [4]
  Activity: 66 cm
Triticum aestivum [5]
  Activity: 42.2 g
Descurainia sophia [6]
  inhibition: Active
Triticum aestivum [7]
  Activity: 42.4 g
Triticum aestivum [8]
  Activity: 71.5 cm
Triticum aestivum [9]
  Activity: 474 /m2
Triticum aestivum [10]
  Activity: 480 /m2
Triticum aestivum [11]
  Activity: 5.6 tons/ha
Triticum aestivum [12]
  Activity: 72 cm
Capsella bursa-pastoris [13]
  inhibition: Active
Descurainia sophia [14]
  inhibition: Active
Triticum aestivum [15]
  Activity: 8.2 tons/ha
Triticum aestivum [16]
  Activity: 41.7 g
Triticum aestivum [17]
  Activity: 61.6 cm
Triticum aestivum [18]
  Activity: 474 /m2
Capsella bursa-pastoris [19]
  ED50: 75.4 gAi/ha
Triticum aestivum [20]
  Activity: 361.5 /m2
Triticum aestivum [21]
  Activity: 366 /m2
Capsella bursa-pastoris [22]
  inhibition: Active
Triticum aestivum [23]
  Activity: 40.9 g
Triticum aestivum [24]
  Activity: 71.5 cm
Capsella bursa-pastoris [25]
  inhibition: Active
Triticum aestivum [26]
  Activity: 72 cm
Triticum aestivum [27]
  Activity: 484.5 /m2
Capsella bursa-pastoris [28]
  inhibition: Active
Triticum aestivum [29]
  Activity: 72 cm
Amaranthus retroflexus
  ED50: 74.1 gAi/ha
Triticum aestivum [30]
  Activity: 38.8 g
Triticum aestivum [31]
  Activity: 71.9 cm
Triticum aestivum [32]
  Activity: 42.5 g
Triticum aestivum [33]
  Activity: 42.2 g
Descurainia sophia [34]
  inhibition: Active
Triticum aestivum [35]
  Activity: 450 /m2
Triticum aestivum [36]
  Activity: Non-toxic
Triticum aestivum [37]
  Activity: 70.5 cm
Triticum aestivum [38]
  Activity: 72.3 cm
Triticum aestivum [39]
  Activity: Toxic
Triticum aestivum [40]
  Activity: 478.5 /m2
Descurainia sophia [41]
  ED50: 23.9 gAi/ha
Triticum aestivum [42]
  Activity: 42.6 g
Descurainia sophia [43]
  inhibition: Active
Triticum aestivum [44]
  Activity: 453 /m2
Triticum aestivum [45]
  Activity: 37.5 g
Triticum aestivum [46]
  Activity: 42.5 g
Myosoton aquaticum
  ED50: 60.2 gAi/ha
Triticum aestivum [47]
  Activity: 70.3 cm
Triticum aestivum [48]
  Activity: 42.2 g
Triticum aestivum [49]
  Activity: 480 /m2
Triticum aestivum [50]
  Activity: 406.5 /m2
